The record followed here is article PMC7026418, “The kinase polypharmacology landscape of clinical PARP inhibitors” (Scientific Reports, 2020).

Among the targets are ALK (Homo sapiens, UniProt Q9UM73); RET (Homo sapiens, UniProt P07949); EGFR(L858R) (Homo sapiens, UniProt P00533, L858R).
What all share (test): biochemical
Parameters in all cases: DiscoveRx KINOMEscan active site-directed competition binding; percent of control kinase bound to immobilised ligand

The target of a further assay is T1, MAP4K2 (Homo sapiens, UniProt Q12851).
T1 sequence (Q12851 1-820): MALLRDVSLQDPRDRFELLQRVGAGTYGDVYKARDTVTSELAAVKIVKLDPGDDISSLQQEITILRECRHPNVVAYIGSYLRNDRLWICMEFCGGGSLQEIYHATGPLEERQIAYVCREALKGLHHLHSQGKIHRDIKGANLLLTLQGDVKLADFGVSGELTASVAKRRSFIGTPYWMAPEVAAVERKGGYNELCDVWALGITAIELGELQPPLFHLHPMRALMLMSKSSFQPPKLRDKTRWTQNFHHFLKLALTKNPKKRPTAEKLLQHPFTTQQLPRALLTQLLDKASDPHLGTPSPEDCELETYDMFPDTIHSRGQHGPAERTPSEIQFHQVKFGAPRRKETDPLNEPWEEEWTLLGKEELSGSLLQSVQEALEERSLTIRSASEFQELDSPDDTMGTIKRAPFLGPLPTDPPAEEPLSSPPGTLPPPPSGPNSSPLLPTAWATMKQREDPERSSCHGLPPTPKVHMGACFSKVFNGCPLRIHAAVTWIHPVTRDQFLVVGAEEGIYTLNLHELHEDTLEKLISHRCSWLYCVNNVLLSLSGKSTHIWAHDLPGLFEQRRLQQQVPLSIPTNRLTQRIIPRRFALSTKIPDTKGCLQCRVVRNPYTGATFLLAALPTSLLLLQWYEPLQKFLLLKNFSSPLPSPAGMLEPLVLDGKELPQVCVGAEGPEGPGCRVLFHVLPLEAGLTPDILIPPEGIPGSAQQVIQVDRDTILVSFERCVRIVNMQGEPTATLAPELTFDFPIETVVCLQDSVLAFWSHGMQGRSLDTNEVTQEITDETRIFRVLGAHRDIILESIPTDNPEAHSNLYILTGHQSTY

The target of the next assay is T2, DRAK1 (Homo sapiens, UniProt Q9UEE5).
T2 construct: gene STK17A
T2 sequence (Q9UEE5 1-414): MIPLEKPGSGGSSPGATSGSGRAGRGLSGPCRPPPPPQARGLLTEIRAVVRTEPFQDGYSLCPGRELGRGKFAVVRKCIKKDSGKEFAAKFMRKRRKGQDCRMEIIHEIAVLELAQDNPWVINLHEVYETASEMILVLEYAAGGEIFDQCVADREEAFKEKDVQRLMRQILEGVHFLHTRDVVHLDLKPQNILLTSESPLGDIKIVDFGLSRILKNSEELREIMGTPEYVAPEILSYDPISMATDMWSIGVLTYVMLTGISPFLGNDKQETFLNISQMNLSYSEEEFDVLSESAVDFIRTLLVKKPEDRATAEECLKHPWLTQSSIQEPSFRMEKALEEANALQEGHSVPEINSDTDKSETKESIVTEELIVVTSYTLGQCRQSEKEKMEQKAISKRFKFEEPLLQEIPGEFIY

The target of assay [1] is T3, ABL1(E255K)-phosphorylated (Homo sapiens, UniProt P00519, E255K).
T3 construct: phosphorylated
T3 sequence (P00519 whole entry E255K): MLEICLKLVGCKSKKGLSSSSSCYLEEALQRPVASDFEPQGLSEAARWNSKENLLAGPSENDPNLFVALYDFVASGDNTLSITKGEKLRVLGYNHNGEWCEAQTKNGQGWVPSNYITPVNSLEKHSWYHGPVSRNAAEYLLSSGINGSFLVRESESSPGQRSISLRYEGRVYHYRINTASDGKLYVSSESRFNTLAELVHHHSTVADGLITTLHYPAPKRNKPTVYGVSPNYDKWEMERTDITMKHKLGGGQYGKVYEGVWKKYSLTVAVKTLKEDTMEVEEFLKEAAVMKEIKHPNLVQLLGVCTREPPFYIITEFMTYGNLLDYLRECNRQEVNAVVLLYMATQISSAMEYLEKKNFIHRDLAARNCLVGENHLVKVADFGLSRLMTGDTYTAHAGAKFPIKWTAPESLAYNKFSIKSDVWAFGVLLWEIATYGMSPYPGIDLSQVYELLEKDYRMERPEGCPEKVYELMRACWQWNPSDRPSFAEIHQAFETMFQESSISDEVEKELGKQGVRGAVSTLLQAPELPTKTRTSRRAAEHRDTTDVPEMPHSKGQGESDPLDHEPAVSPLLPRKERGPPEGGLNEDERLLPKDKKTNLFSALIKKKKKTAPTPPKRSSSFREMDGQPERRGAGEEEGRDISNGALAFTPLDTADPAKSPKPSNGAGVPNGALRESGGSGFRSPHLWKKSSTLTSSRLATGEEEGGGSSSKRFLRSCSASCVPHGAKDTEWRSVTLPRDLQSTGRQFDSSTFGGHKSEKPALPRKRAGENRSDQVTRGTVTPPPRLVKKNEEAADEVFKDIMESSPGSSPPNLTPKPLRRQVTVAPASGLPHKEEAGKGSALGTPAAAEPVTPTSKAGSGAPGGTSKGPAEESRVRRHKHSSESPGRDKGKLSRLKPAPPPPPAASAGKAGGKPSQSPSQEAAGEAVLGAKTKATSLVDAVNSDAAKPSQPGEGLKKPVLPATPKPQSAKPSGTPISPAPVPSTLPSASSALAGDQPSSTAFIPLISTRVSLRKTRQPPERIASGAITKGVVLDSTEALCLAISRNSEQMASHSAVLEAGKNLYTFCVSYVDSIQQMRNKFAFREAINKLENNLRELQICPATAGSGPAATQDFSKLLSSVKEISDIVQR

Assay [2] concerns the target T4, RPS6KA5(Kin.Dom.1-N-terminal) (Homo sapiens, UniProt O75582).
T4 construct: Kin.Dom.1-N-terminal

For another assay, the target named is T5, CASK (Homo sapiens, UniProt O14936).
T5 sequence (O14936 1-926): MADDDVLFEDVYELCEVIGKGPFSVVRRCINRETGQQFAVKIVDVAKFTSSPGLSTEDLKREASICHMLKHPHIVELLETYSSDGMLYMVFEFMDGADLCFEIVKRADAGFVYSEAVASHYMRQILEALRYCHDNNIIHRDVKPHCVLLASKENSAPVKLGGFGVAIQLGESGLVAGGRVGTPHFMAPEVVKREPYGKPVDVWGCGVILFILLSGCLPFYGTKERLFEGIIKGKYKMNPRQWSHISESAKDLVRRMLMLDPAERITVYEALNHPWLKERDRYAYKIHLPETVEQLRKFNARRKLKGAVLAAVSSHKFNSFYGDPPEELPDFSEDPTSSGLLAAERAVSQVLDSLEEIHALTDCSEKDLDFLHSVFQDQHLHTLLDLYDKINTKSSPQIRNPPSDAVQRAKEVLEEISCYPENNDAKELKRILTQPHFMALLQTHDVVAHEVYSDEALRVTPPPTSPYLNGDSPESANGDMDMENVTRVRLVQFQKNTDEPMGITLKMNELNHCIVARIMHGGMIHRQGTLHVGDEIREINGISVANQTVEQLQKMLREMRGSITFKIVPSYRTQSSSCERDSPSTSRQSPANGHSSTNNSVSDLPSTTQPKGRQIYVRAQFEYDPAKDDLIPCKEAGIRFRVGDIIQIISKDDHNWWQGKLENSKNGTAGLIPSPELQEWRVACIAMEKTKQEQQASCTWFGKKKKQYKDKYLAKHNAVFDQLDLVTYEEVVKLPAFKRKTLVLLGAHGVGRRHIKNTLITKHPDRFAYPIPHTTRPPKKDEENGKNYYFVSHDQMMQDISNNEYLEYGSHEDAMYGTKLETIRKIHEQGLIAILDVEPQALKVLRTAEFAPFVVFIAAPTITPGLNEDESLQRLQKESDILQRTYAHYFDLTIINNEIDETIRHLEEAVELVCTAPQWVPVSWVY

The mark [3] stands for this setting: read-out: Rucaparib / %Ctrl @ 10000nM, binding competition, % of control.
[4] abbreviates: read-out: Talazoparib (BMN 673) / %Ctrl @ 10000nM.
Setting [5] is: read-out: Niraparib (MK-4827) / %Ctrl @ 10000nM.
The mark [6] stands for this setting: read-out: Olaparib / %Ctrl @ 10000nM.

The structures appear in SMILES notation. Where two headings read alike, the source gives them in different places.

Sequence of EGFR(L858R) (P00533 whole entry L858R): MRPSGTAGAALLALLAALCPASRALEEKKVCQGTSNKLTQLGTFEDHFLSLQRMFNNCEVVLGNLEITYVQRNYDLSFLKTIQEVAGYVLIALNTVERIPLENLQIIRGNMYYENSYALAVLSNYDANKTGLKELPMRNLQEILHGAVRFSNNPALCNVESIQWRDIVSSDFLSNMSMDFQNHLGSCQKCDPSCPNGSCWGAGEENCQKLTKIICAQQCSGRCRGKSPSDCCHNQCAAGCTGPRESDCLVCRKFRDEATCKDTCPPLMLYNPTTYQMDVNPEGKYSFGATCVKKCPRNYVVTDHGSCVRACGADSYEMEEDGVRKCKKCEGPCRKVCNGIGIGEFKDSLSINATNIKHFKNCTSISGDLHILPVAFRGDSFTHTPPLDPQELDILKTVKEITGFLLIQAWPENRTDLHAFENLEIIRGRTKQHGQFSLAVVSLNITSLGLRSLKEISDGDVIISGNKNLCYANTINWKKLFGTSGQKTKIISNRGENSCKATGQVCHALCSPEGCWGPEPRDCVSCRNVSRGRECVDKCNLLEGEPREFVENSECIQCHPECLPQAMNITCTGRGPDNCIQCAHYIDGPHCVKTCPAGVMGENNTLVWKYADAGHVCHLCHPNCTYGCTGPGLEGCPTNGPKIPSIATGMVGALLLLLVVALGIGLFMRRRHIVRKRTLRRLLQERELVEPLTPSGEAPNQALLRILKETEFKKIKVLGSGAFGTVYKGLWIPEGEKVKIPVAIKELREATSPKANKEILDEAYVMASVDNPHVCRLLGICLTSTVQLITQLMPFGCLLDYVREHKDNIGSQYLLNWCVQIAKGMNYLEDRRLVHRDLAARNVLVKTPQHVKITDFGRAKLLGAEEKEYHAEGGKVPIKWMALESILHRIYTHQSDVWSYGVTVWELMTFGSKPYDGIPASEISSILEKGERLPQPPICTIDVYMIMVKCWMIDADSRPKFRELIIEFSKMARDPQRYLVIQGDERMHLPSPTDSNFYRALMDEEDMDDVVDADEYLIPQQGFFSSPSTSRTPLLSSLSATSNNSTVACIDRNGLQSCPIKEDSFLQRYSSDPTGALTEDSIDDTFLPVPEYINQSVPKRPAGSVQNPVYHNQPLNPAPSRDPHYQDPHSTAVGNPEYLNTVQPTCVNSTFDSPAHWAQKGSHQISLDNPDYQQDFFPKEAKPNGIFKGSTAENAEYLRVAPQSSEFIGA
Sequence of RET (P07949 whole entry): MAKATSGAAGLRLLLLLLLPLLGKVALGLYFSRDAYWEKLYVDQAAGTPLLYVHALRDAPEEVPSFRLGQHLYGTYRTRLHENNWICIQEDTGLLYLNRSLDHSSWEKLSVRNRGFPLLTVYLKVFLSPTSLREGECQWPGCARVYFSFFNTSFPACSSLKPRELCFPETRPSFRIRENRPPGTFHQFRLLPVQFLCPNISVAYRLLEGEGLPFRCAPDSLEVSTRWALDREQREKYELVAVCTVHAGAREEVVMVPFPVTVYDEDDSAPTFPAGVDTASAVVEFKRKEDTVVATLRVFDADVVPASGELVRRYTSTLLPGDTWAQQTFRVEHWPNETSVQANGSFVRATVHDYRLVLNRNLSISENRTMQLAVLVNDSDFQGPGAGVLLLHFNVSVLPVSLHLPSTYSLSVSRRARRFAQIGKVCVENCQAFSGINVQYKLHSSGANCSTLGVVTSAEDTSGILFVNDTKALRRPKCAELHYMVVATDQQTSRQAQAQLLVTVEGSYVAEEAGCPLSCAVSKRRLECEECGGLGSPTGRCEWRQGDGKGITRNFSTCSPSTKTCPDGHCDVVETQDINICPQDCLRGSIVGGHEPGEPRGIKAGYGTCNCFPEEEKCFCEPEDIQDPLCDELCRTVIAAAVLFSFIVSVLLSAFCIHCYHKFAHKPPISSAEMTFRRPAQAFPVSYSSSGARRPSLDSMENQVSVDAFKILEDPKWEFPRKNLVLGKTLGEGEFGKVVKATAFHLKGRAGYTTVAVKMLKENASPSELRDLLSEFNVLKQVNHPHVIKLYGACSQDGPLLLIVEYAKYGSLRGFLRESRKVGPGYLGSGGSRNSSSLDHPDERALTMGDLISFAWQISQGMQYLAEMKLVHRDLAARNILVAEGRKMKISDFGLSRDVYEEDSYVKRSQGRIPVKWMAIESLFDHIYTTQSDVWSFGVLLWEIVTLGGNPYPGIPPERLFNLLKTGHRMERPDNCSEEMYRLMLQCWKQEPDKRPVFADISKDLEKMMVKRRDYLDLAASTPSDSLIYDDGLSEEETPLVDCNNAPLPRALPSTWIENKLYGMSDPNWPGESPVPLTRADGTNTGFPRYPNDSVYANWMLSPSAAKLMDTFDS
Sequence of ALK (Q9UM73 whole entry): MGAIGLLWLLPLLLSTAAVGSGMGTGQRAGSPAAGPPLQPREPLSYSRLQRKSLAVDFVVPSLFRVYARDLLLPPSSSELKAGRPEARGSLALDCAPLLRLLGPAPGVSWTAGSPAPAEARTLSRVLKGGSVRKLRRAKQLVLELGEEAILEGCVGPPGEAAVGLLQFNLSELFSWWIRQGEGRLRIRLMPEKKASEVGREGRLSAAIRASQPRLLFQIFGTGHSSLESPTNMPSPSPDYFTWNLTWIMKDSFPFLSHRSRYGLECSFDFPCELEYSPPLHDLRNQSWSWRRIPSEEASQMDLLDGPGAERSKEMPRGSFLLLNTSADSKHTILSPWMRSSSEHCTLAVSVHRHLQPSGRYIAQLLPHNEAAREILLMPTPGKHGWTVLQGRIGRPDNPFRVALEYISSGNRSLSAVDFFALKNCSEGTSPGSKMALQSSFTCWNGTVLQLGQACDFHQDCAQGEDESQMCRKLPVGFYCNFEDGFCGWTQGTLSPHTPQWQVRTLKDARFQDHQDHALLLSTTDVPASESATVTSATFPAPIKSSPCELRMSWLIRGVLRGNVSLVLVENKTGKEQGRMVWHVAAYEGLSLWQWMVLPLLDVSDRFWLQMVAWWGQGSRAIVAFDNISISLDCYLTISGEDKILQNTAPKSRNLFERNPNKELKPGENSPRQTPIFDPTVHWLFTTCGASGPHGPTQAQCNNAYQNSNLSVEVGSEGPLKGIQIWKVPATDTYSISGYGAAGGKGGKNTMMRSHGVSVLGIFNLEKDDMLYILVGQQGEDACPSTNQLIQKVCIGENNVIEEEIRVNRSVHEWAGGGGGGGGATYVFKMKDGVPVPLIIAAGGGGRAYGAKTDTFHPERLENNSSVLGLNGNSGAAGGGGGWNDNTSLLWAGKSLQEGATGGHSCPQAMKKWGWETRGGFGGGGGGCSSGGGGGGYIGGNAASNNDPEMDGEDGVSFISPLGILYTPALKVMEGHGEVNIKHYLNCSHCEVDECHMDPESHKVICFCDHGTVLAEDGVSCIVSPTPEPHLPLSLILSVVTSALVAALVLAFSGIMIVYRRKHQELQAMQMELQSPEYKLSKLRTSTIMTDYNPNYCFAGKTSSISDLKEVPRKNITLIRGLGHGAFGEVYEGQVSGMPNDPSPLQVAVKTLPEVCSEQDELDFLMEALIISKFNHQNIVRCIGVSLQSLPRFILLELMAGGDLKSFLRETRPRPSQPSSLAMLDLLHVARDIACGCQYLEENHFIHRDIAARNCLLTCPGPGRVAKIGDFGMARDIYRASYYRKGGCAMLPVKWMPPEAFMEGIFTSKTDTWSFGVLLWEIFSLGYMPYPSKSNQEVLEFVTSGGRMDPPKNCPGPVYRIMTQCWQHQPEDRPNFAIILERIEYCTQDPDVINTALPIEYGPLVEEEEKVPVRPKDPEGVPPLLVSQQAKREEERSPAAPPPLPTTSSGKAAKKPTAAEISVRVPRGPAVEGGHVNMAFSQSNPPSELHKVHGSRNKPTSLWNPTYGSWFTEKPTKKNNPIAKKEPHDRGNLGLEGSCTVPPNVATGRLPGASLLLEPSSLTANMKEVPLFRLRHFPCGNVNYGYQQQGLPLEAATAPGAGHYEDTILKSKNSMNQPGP

In the case of `CNCc1ccc(-c2[nH]c3cc(F)cc4c3c2CCNC4=O)cc1` [Rucaparib], the percent of control binding at 10 µM was found to be 79% at MAP4K2 (setting [3]); 14% at DRAK1 (setting [3]); 91% in assay [1] (setting [3]); 100% in assay [2] (setting [3]); 45% at ALK (setting [3]); 98% at RET (setting [3]). Besides, the values for the percent of control binding at 10 µM on EGFR(L858R) (setting [3]) and on CASK (setting [3]) were 96% and 83%, respectively.
As to `Cn1ncnc1[C@H]1c2n[nH]c(=O)c3cc(F)cc(c23)N[C@@H]1c1ccc(F)cc1` [Talazoparib], the percent of control binding at 10 µM was 94% on MAP4K2 (setting [4]); 100% at DRAK1 (setting [4]); 100% in assay [1] (setting [4]); 98% in assay [2] (setting [4]); 100% at ALK (setting [4]); 100% on RET (setting [4]). Moreover, the percent of control binding at 10 µM on EGFR(L858R) (setting [4]) is 97%; on CASK (setting [4]), 79%.
For `NC(=O)c1cccc2cn(-c3ccc([C@@H]4CCCNC4)cc3)nc12` [Niraparib], the percent of control binding at 10 µM was found to be 83% on MAP4K2 (setting [5]); 26% on DRAK1 (setting [5]); 64% in assay [1] (setting [5]); 99% in assay [2] (setting [5]); 98% at ALK (setting [5]); 83% on RET (setting [5]). In addition, the percent of control binding at 10 µM at EGFR(L858R) (setting [5]) worked out at 70%; on CASK (setting [5]), 93%.
As for `O=C(c1cc(Cc2n[nH]c(=O)c3ccccc23)ccc1F)N1CCN(C(=O)C2CC2)CC1` [Olaparib], the percent of control binding at 10 µM at MAP4K2 (setting [6]) was 97%; on DRAK1 (setting [6]) it was 95%; in assay [1] (setting [6]), 89%; in assay [2] (setting [6]) it was 94%; at ALK (setting [6]), 86%; on RET (setting [6]), 100%. Moreover, the percent of control binding at 10 µM was 92% on EGFR(L858R) (setting [6]) and 78% at CASK (setting [6]).
